The record followed here is patent publication US9834542B2, “LXR modulators” (BRISTOL-MYERS SQUIBB COMPANY, priority 2013, dated 2017).

pEC50: −log10 of the molar value.

In this test the target is T1, LXRβ (Homo sapiens, UniProt P55055).
T1 construct: Co-transfection expression plasmids, comprising full-length LXRα (pCMX-h LXRα[…] or LXRβ (pCMX-hLXRβ)); expressed in transfected cells; host or cells: CV-1 African Green Monkey Kidney Cells
T1 sequence (P55055 1-460): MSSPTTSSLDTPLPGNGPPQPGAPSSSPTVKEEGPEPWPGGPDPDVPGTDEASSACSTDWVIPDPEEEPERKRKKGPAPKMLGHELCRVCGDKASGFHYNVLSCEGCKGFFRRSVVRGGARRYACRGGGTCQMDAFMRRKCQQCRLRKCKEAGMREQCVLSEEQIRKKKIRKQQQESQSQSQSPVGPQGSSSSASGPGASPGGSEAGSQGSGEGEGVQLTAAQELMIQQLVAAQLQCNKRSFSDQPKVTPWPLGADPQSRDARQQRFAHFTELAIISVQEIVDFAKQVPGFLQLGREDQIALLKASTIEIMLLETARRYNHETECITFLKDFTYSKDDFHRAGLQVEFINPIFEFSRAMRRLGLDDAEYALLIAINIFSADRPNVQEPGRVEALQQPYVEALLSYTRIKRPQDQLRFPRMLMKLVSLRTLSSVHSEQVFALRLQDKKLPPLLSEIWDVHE
T1 sequence (P19793 1-462 partner): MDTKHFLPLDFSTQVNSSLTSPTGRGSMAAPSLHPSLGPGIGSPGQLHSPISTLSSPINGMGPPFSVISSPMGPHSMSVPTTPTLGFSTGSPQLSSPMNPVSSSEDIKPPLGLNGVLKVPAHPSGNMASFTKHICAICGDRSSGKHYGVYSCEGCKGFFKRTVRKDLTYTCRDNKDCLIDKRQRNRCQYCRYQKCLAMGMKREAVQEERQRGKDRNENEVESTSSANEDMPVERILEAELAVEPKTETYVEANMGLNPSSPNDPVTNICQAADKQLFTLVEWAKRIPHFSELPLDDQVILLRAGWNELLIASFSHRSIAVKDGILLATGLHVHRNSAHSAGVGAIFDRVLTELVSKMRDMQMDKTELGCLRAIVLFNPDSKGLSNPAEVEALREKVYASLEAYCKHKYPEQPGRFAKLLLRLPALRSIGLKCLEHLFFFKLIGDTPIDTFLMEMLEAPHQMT
Nature of the test: Co-transfection assay (LXRE luciferase reporter), LXRβ. Type of test: cell-based. To be noted: for pEC50: CV-1 cells transfected with pCMX-hLXRβ and LXREx1-Tk-Luciferase, 20 hours incubation; for Emax: LXRβ co-transfection, relative to high control 1-(2,4-difluorobenzyl)-2-oxo-6-(4-phenoxyphenyl)-4-(trifluoromethyl)-1,2-dihydropyridine-3-carbonitrile, read-out: % Efficacy. In short, it runs like this: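 Cell-based LXRβ agonism measured as LXRE-luciferase induction in transiently transfected CV-1 cells after 20 h treatment. Potency is the curve-fit EC50; efficacy is expressed as percent of a full-agonist control's maximal response.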
(In general: A reporter such as luciferase makes a cellular process visible.)

For orientation: pEC50 means the negative decadic logarithm of the EC50, by convention in mol/L. As to `Cc1nc(-c2cc(-c3cccc(S(C)(=O)=O)c3)ccc2-n2cc(C(F)(F)F)nc2C)c(-c2ccc(OC(F)F)c(OC(F)F)c2)o1` [Example 392, 5-(3,4-bis(difluoromethoxy)ohenyl)-2-methyl-4-(4-(2-methyl-4-(trifluoromethyl)-1H-imidazol-1-yl)-3′-(methylsulfonyl)biphenyl-3-yl)oxazole], the negative-log EC50 (pEC50) was 6.73 and the Emax was found to be 53%.

Turning to `Cc1nc(-c2cc(-c3cc(F)c(CO)c(S(C)(=O)=O)c3)ccc2-n2cc(C(F)(F)F)nc2C)c(-c2ccc(OC(F)F)c(OC(F)F)c2)o1` [Example 393, (3′-(5-(3,4-bis(difluoromethoxy)phenyl)-2-methyloxazol-4-yl)-3-fluoro-4′-(2-methyl-4-(trifluoromethyl)-1H-imidazol-1-yl)-5-(methylsulfonyl)biphenyl-4-yl)methanol], the pEC50 is 7.19 and the Emax was 56%.

Take `Cc1nc(-c2cc(-c3cccc(S(C)(=O)=O)c3)ccc2-n2cc(C(F)(F)F)nc2C)c(-c2cccnc2C)o1` [Example 394, 2-methyl-4-(4-(2-methyl-4-(trifluoromethyl)-1H-imidazol-1-yl)-3′-(methylsulfonyl)biphenyl-3-yl)-5-(2-methylpyridin-3-yl)oxazole]: the pEC50 was 6.21 and the Emax came out at 60%.

`Cc1nc(-c2cc(-c3cc(F)c(CO)c(S(C)(=O)=O)c3)ccc2-n2cc(C(F)(F)F)nc2C)c(-c2cccnc2C)o1` [Example 395, (3-fluoro-4′-(2-methyl-4-(trifluoromethyl)-1H-imidazol-1-yl)-3′-(2-methyl-5-(2-methylpyridin-3-yl)oxazol-4-yl)-5-(methylsulfonyl)biphenyl-4-yl)methanol]: the pEC50 is 5.91 and the Emax is 61%.

As for `Cc1nc(-c2cc(-c3cccc(S(C)(=O)=O)c3)ccc2-n2cc(C(F)(F)F)nc2C)c(-c2ccc(OC(F)F)cc2Cl)o1` [Example 396, 5-(2-chloro-4-(difluoromethoxy)phenyl)-2-methyl-4-(4-(2-methyl-4-(trifluoromethyl)-1H-imidazol-1-yl)-3′-(methylsulfonyl)biphenyl-3-yl)oxazole], the pEC50 was 7.47 and the Emax was found to be 71%.

`Cc1nc(-c2cc(-c3cc(F)c(CO)c(S(C)(=O)=O)c3)ccc2-n2cc(C(F)(F)F)nc2C)c(-c2ccc(OC(F)F)cc2Cl)o1` [Example 397, (3′-(5-(2-chloro-4-(difluoromethoxy)phenyl)-2-methyloxazol-4-yl)-3-fluoro-4′-(2-methyl-4-(trifluoromethyl)-1H-imidazol-1-yl)-5-(methylsulfonyl)biphenyl-4-yl)methanol]: the pEC50 was 7.60 and the Emax amounted to 63%.

As for `Cc1nc(-c2cc(-c3cccc(S(C)(=O)=O)c3)ccc2-n2cc(C(F)(F)F)nc2C)c(-c2ccc(OC(F)F)c(Cl)c2)o1` [Example 398, 5-(3-chloro-4-(difluoromethoxy)phenyl)-2-methyl-4-(4-(2-methyl-4-(trifluoromethyl)-1H-imidazol-1-yl)-3′-(methylsulfonyl)biphenyl-3-yl)oxazole], the pEC50 is 7.26 and the Emax came out at 79%.

Take `Cc1nc(-c2cc(-c3cc(F)c(CO)c(S(C)(=O)=O)c3)ccc2-n2cc(C(F)(F)F)nc2C)c(-c2ccc(OC(F)F)c(Cl)c2)o1` [Example 399, (3′-(5-(3-chloro-4-(difluoromethoxy)phenyl)-2-methyloxazol-4-yl)-3-fluoro-4′-(2-methyl-4-(trifluoromethyl)-1H-imidazol-1-yl)-5-(methylsulfonyl)biphenyl-4-yl)methanol]: the pEC50 was 7.55 and the Emax was found to be 76%.

Take `COc1ncc(F)cc1-c1oc(C)nc1-c1cc(-c2cccc(S(C)(=O)=O)c2)ccc1-n1cc(C(F)(F)F)nc1C` [Example 400]: the negative-log EC50 (pEC50) was 5.93 and the Emax turned out to be 55%.

`COc1ncc(F)cc1-c1oc(C)nc1-c1cc(-c2cc(F)c(CO)c(S(C)(=O)=O)c2)ccc1-n1cc(C(F)(F)F)nc1C` [Example 401, (3-fluoro-3′-(5-(5-fluoro-2-methoxypyridin-3-yl)-2-methyloxazol-4-yl)-4′-(2-methyl-4-(trifluoromethyl)-1H-imidazol-1-yl)-5-(methylsulfonyl)biphenyl-4-yl)methanol]: the pEC50 was 6.57 and the Emax was 60%.

As for `Cc1nc(-c2cc(-c3ccc(CO)c(S(C)(=O)=O)c3)ccc2-n2cc(C(F)(F)F)nc2C)c(-c2ccc(OC(F)F)c(F)c2)o1` [Example 402, (3′-(5-(4-(difluoromethoxy)-3-fluorophenyl)-2-methyloxazol-4-yl)-4′-(2-methyl-4-(trifluoromethyl)-1H-imidazol-1-yl)-3-(methylsulfonyl)biphenyl-4-yl)methanol], the pEC50 is 7.37 and the Emax was determined as 88%.

On to `Cc1nc(-c2cc(-c3cccc(S(C)(=O)=O)c3)ccc2-n2cc(C(F)(F)F)nc2C)c(-c2ccc(OCC3CC3)c(F)c2)o1` [Example 404, 5-(4-(cyclopropylmethoxy)-3-fluorophenyl)-2-methyl-4-(4-(2-methyl-4-(trifluoromethyl)-1H-imidazol-1-yl)-3′-(methylsulfonyl)biphenyl-3-yl)oxazole], for which the pEC50 is 6.80 and the Emax was 69%.

As for `Cc1nc(-c2cc(-c3cc(F)c(CO)c(S(C)(=O)=O)c3)ccc2-n2cc(C(F)(F)F)nc2C)c(-c2ccc(OCC3CC3)c(F)c2)o1` [Example 405, (3′-(5-(4-(cyclopropylmethoxy)-3-fluorophenyl)-2-methyloxazol-4-yl)-3-fluoro-4′-(2-methyl-4-(trifluoromethyl)-1H-imidazol-1-yl)-5-(methylsulfonyl)biphenyl-4-yl)methanol], the pEC50 was 7.17 and the Emax was found to be 59%.

For `Cc1nc(-c2cc(-c3cccc(S(C)(=O)=O)c3)ccc2-n2cc(C(F)(F)F)nc2C)c(-c2ccc(OC(CF)CF)c(F)c2)o1` [Example 406, 5-(4-(1,3-difluoropropan-2-yloxy)-3-fluorophenyl)-2-methyl-4-(4-(2-methyl-4-(trifluoromethyl)-1H-imidazol-1-yl)-3′-(methylsulfonyl)biphenyl-3-yl)oxazole], the pEC50 was 6.74 and the Emax was 68%.

With `Cc1nc(-c2cc(-c3cc(F)c(CO)c(S(C)(=O)=O)c3)ccc2-n2cc(C(F)(F)F)nc2C)c(-c2ccc(OC(CF)CF)c(F)c2)o1` [Example 407, (3′-(5-(4-(1,3-difluoropropan-2-yloxy)-3-fluorophenyl)-2-methyloxazol-4-yl)-3-fluoro-4′-(2-methyl-4-(trifluoromethyl)-1H-imidazol-1-yl)-5-(methylsulfonyl)biphenyl-4-yl)methanol], the pEC50 was 6.93 and the Emax was determined as 70%.

For the molecule `Cc1nc(-c2cc(-c3cccc(S(C)(=O)=O)c3)ccc2-n2cc(C(F)(F)F)nc2C)c(-c2ccc(OC3CCCCC3)nc2)o1` [Example 408, 5-(6-(cyclohexyloxy)pyridin-3-yl)-2-methyl-4-(4-(2-methyl-4-(trifluoromethyl)-1H-imidazol-1-yl)-3′-(methylsulfonyl)biphenyl-3-yl)oxazole], the pEC50 is 6.48 and the Emax was 55%.

Consider `Cc1nc(-c2cc(-c3cc(F)c(CO)c(S(C)(=O)=O)c3)ccc2-n2cc(C(F)(F)F)nc2C)c(-c2ccc(OC3CCCCC3)nc2)o1` [Example 409, (3′-(5-(6-(cyclohexyloxy)pyridin-3-yl)-2-methyloxazol-4-yl)-3-fluoro-4′-(2-methyl-4-(trifluoromethyl)-1H-imidazol-1-yl)-5-(methylsulfonyl)biphenyl-4-yl)methanol], for which the pEC50 was 6.89 and the Emax stood at 45%.

For the molecule `Cc1nc(-c2cc(-c3cccc(S(C)(=O)=O)c3)ccc2-n2cc(C(F)(F)F)nc2C)c(-c2ccc(OC3CCCC3)nc2)o1` [Example 410, 5-(6-(cyclopentyloxy)pyridin-3-yl)-2-methyl-4-(4-(2-methyl-4-(trifluoromethyl)-1H-imidazol-1-yl)-3′-(methylsulfonyl)biphenyl-3-yl)oxazole], the pEC50 is 6.69 and the Emax amounted to 49%.
